Measurements reported in patent US5998366A, “Method for ameliorating glutamic acid decarboxylase associated autoimmune disorders” (The Regents of the University of California, priority 1997, dated 1999).

Key:
[1] = test system: spleen cells of 6-9 week old NOD mice; experiment: IFNγ ELISA and ELISA spot of spleen cells challenged with antigen; type: cell-based
Method: In one series of experiments γ interferon (IFNγ) was measured by ELISA in culture supernatants (CSN) of spleen cells of 6-9 week old mice after challenge with GAD or control antigens HEL and MBP. Additionally, the frequency of antigen specific, IFNγ-producing cells was determined by an ELISA spot technique (T. Taguchi, et al., J. Immunol., 145:68-77, 1990). Frequency of antigen-induced, spot forming cells (SFC) among 10^3 spleen cells is represented in FIG. 9(a). Values are the mean+SEM from 5 individual female NOD mice, each tested in triplicate cultures with or without antigen. Results from a single experiment are shown. These are representative of 3 separate experiments.
In performing these experiments, freshly isolated spleen cells were cultured with or without antigen as described in Example 4. CSN were taken after 48 h and the concentration of IFNγ was determined by ELISA (Macy, et al., FASEB J., 3003-3009, 1988). IFNγ specific monoclonal antibody (mAb) R4-6A2 (Pharmingen) was used as the capturing reagent and biotinylated mAb XMG 1.2 (Pharmingen, also specific for IFNγ) was used in conjunction with streptavidin-alkaline phosphatase (Zymed) and […] for detection of bound lymphokine. […] Spots were counted visually and the frequency of antigen specific cells was determined from the difference between the number of spots seen with and without antigen.

[2] = test system: spleen cells of treated female NOD mice; experiment: Proliferative splenic T-cell responses to antigens after tolerance induction; type: in vivo
Method: (§1) NOD (Taconic farms) and BALB/c mice (Jackson Laboratories) were kept under specific pathogen free conditions. The mice were sacrificed at the ages indicated and the spleen cells were tested directly ex vivo for their proliferative recall response to antigen. Single cell suspensions of spleen cells were plated at 1×10^6 cells per well in 96 well microtiter plates in 200 μl serum free HL-1 medium (Ventrex) that was supplemented with 2 mM glutamine with or without 10 μg/ml antigen (or 7 μM peptide) in triplicate cultures. During the last 16 h of the 72 h culture period, 1 μCi[^3 H]-thymidine was added per well. Incorporation of label was measured by liquid scintillation counting.
1. In these experiments female NOD mice were intravenously injected at 3 weeks of age with 50 μg GAD, μ-galactosidase, mycobacterial hsp65 (m-hsp) or 0.1 μg of the immunodominant hsp peptide (hsp-p), in PBS. At 12 weeks of age, mice were examined for insulitis and autoantigen reactive T-cells. At this age both indications are established in untreated NOD mice. Pancreatic tissue sections were stained by immunoperoxidase techniques for insulin and were counterstained with hematoxylin. Insulitis was scored in a blinded manner by examining 54 to 87 islets on 5 interrupted tissue sections from each pancreas. […] Data in Table 8 are expressed as the average [^3 H]-thymidine label (cpm) incorporated in triplicate cultures. […]

female NOD mice [3] = experiment: Long-term diabetes incidence, insulitis and βCA reactive T cells after GAD tolerization; type: in vivo
Method: (§2) 1. In these experiments female NOD mice were intravenously injected at 3 weeks of age with 50 μg GAD, μ-galactosidase, mycobacterial hsp65 (m-hsp) or 0.1 μg of the immunodominant hsp peptide (hsp-p), in PBS. At 12 weeks of age, mice were examined for insulitis and autoantigen reactive T-cells. At this age both indications are established in untreated NOD mice. Pancreatic tissue sections were stained by immunoperoxidase techniques for insulin and were counterstained with hematoxylin. Insulitis was scored in a blinded manner by examining 54 to 87 islets on 5 interrupted tissue sections from each pancreas. Proliferative splenic T-cell responses induced by various antigens were performed as described above in Example 4. Data in Table 8 are expressed as the average [^3 H]-thymidine label (cpm) incorporated in triplicate cultures.
Five GAD treated mice were sacrificed at 30 weeks of age.

spleen cells of NOD mice = experiment: Proliferative recall response of spleen cells to β-cell antigens, by age; type: cell-based
Method: as §1
Both human GAD65 (Bu, et al., Proc. Natl. Acad. Sci., 89:2115-2119, 1992) and E. coli β-gal (control) were purified from recombinant bacteria on the basis of a hexahistidine tag which allows their rapid affinity purification by metal affinity chromatography (Hochuli, et al., Bio/Technology, 6:1321-1325, 1988). Bovine CPH was the generous gift of L. Fricker (Albert Einstein Col. Med.) and human insulin was purchased from Eli Lilly.

female NOD mice [4] = experiment: Insulitis score after tolerance induction; type: in vivo; details: examined at 12 weeks
Method: as §2
2. In a second set of experiments neonatal female NOD mice were injected intraperitoneally IFA with peptide 11, a mixture of peptides 34 and 35 plus IFA, or with IFA alone and at 12 weeks of age the mice were examined for insulitis and autoantigen reactive T-cells as in Example 6.1. Proliferative splenic T-cell responses induced by the various antigens were performed as in Example 4, and data in Table 8B are expressed as the average [^3 H]-thymidine label (cpm) incorporated in triplicate cultures.
3. In a third set of experiments female NOD mice were intravenously injected at three weeks of age with peptide 11 (control), a mixture of peptides 34 and 35 plus IFA, or with HEL peptides and at 12 weeks of age the mice were examined for insulitis and autoantigen reactive T-cells as in Example 6.1. Proliferative splenic T-cell responses induced by the various antigens were performed as in Example 4, and data in Table 8C are expressed as the average [^3 H]-thymidine label (cpm) incorporated in triplicate cultures.

[5] = test system: spleen cells of treated female NOD mice; experiment: Proliferative splenic T-cell responses to antigens after tolerance induction; type: in vivo; details: Table 8A: i.v. at 3 weeks, tested at 12 weeks
[6] = five treated mice sacrificed at 30 weeks

GAD: human GAD65 purified from recombinant bacteria on the basis of a hexahistidine tag
IFNγ in culture supernatants after antigen challenge ([1]; 48 h, ELISA): high concentrations of IFNγ | frequency of antigen-reactive (IFNγ spot forming) T-cells in the spleen ([1]; ELISA spot): 90-291 cells per 10^5 cells | share of treated mice with no T-cell reactivity to GAD (complete tolerization) or to other βCAs ([2]; i.v. at 3 weeks, tested at 12 weeks): Seventy five percent | weak residual GAD reactivity of the mice not completely tolerized ([2]; twenty five percent of the GAD-treated mice): about 3 SI | insulitis at 30 weeks of age (female NOD mice [3]; [6]): four mice were completely free of insulitis | βCA reactive T cells at 30 weeks of age (female NOD mice [3]; [6]): free of detectable βCA reactive T cells | glucose levels of treated mice (female NOD mice [3]; n=17, presently 37 weeks old): normal glucose levels | T cell proliferation in non-diseased spleen cells (spleen cells of NOD mice; <4 or >16 week old NOD or control BALB/c or (NOD/BALB/c)F1 spleen cells): did not induce T cell proliferation | age at which the proliferative T-cell response to the antigen appeared (spleen cells of NOD mice; female NOD mice, 10 μg/ml antigen or 7 μM peptide, 72 h culture (FIG. 8)): 4 weeks | Insulitis Score (female NOD mice [4]; Table 8A: i.v. injection at 3 weeks of age in PBS, scale 0-4, mean ± SE): 0.1 ± 0.1 | insulitis score of the completely tolerized mice (female NOD mice [4]; i.v. at 3 weeks): 0.0 | Spleen Cell Proliferation (SI ± SEM) CPH ([5]; recall antigen CPH): 1.1 ± 0.02 SI | Spleen Cell Proliferation (SI ± SEM) GAD ([5]; recall antigen GAD): 1.6 ± 0.3 SI | Spleen Cell Proliferation (SI ± SEM) GAD Peptides #17 ([5]; recall antigen GAD peptide #17): 1.0 ± 0.05 SI | Spleen Cell Proliferation (SI ± SEM) GAD Peptides #34 ([5]; recall antigen GAD peptide #34): 1.2 ± 0.1 SI | Spleen Cell Proliferation (SI ± SEM) GAD Peptides #35 ([5]; recall antigen GAD peptide #35): 1.0 ± 0.1 SI | Spleen Cell Proliferation (SI ± SEM) hsp Peptide ([5]; recall antigen hsp peptide): 1.2 ± 0.1 SI | Spleen Cell Proliferation (SI ± SEM) β-Gal ([5]; recall antigen β-Gal): 1.1 ± 0.03 SI
